Laboratory results published in PMC8179049 (Chemical Science, 2020).
“And” between values parts separate entries of the source, which are not always exact repeats. Equal values may be shown once. Read-outs that look alike come from different tables or passages of the source.

Tests used:
[1] = target: T1, human AspH (His6-AspH315-758) (Homo sapiens, UniProt Q12797); parameters: method as in PMID 33069066; conditions: ref 41a; read-out: IC50 (inhibition of AspH, literature); cited from earlier work
T1 construct: N-Terminally His6-tagged human AspH315-758 (His6-AspH315-758) was produced in Escherichia coli BL21 (DE3); made in house; host or cells: Escherichia coli BL21 (DE3), pET-28a(+) vector
T1 sequence (Q12797 315-758): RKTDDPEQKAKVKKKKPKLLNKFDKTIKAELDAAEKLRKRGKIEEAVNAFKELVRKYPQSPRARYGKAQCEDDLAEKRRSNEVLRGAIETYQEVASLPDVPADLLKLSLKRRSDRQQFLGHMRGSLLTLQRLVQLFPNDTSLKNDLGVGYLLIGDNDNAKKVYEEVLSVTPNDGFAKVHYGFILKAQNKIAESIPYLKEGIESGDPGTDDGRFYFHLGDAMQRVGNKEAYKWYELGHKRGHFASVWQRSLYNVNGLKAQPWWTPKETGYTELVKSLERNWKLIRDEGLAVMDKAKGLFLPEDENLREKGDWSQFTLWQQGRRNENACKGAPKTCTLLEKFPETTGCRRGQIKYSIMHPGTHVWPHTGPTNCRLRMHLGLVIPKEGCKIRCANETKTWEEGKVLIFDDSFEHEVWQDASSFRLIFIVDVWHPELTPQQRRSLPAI

[2] = target: T1, human AspH (His6-AspH315-758); parameters: method as in PMID 32107312; conditions: cited from earlier work
[3] = target: T1, human AspH (His6-AspH315-758); assay: AspH steady-state kinetics by SPE-MS turnover assays; type: biochemical; conditions: for K app m / v app max: 0.1 μM His6-AspH315–758, 2.0 μM hFX-CP101–119, in the presence of LAA, mean ± SD, n = 3
Method: Supporting Figure S6. Initial hydroxylation rates of AspH-catalyzed peptide hydroxylations used to
Measurement times were normalized to the first sample injection analyzed after the addition of the Enzyme
(§1) The mass spectrometer parameters were:
(§2) Data were exported into Microsoft
(§3) The standard deviation (SD) of three
(§4) Z’-factors were calculated
9. Determination of kinetic parameters
(§5) in 50 mM HEPES buffer (pH 7.5).

[4] = target: T1, human AspH (His6-AspH315-758); assay: NMR monitoring of AspH-catalyzed oxidative decarboxylation, with final SPE-MS analysis; type: biochemical; conditions: for time to complete AspH-catalyzed oxidative decarboxylation (NMR) / hydroxylation (conversion) of hFX-CP101-119 in the final reaction mixture by SPE-MS: 10 μM AspH, 150 μM cosubstrate; for AspH-catalyzed oxidative decarboxylation of the 2OG derivative (NMR): 10 μM His6-AspH315-758, 150 μM hFX-CP101-119, 150 μM 2OG derivative, 50 μM FAS, pH 7.5, 25 °C
Method: 2-methylsuccinate and terephthalate, respectively (continues on the following two pages). The AspH- […]
700 NMR machine equipped with a 5mm 1H(13C/15N) inverse cryoprobe. Assay conditions: 10 μM His6-AspH315- […]
iron(II) sulfate hexahydrate (FAS, (NH4)2Fe(SO4)2·6H2O) in 50 mM aqueous Tris-d11 containing 10 %v/v D2O (pH […]
product of the AspH-catalyzed reaction, was determined using SPE-MS (Supporting Information, Section 9) after […]
of the 1H NMR spectrum of commercial succinate in 50 mM aqueous Tris-d11 containing 10 %v/v D2O (pH 7.5, 25° […]
(1 picture or pasted object on this page, not shown here) […]
using a Bruker AVIII 700 NMR machine equipped with a 5mm 1H(13C/15N) inverse cryoprobe. Assay conditions: […]
ammonium iron(II) sulfate hexahydrate (FAS, (NH 4)2Fe(SO4)2·6H2O) in 50 mM aqueous Tris -d11 containing […]
which is the product of the AspH-catalyzed reaction, was determined using SPE-MS (Supporting Information, Section 9) after completion of the NMR experiments. […]
spectrum of synthetic 34 in 50 mM aqueous Tris-d11 containing 10 %v/v D2O (pH 7.5, 25° C); (b) Close-up (3.0-0.9 ppm) of the 1H NMR spectrum of commercial 2,2-dimethylsuccinate (52) in 50 mM aqueous Tris-d11

[5] = target: T1, human AspH (His6-AspH315-758); assay: SPE-MS AspH inhibition assay; type: biochemical; conditions: mean ± SD, n = 3
Method: 6. Recombinant AspH production and purification
N-Terminally His6-tagged human AspH315-758 (His6-AspH315-758) was produced in Escherichia coli BL21 (DE3) cells using a pET-28a(+) vector and purified by Ni(II)-affinity chromatography (HisTrap HP column, GE Healthcare; 1 mL/min flow rate) and size-exclusion chromatography (HiLoad 26/60 Superdex 75 pg 300 mL column; 1 mL/min) using an ÄKTA pure machine (GE Healthcare) as previously reported.1,4 AspH was >95% pure by SDS-PAGE and MS analysis and had the anticipated mass (calculated for His6-AspH315-758: 54519 Da, found: 54519 Da).1 Purified AspH was stored in 50 mM HEPES buffer (pH 7.5, 150 mM NaCl) at a concentration of 125 μM at -78 °C; fresh aliquots were used for all AspH assays.
7. AspH substrate synthesis
AspH substrates were designed based on the sequence of EGFD1 of human coagulation factor X (hFX amino acids 86-124), which is a reported cellular AspH substrate.2 All substrates were prepared with a C-terminal amide.
The hFX-EGFD186-124-4Ser peptide (hFX amino acids 86-124; Supporting Figure S1c),1 used for crystallography experiments, was synthesized by solid phase peptide synthesis (SPPS) and purified by GL Biochem (Shanghai) Ltd (Shanghai, China). The thioether linked cyclic peptide hFX-CP101-119 (hFX amino acids 101-119; Supporting
Figure S1d), which was used as substrate in AspH SPE-MS assays,4 was synthesized by an intramolecular thioetherification cyclization reaction from the corresponding linear peptide (D-Ala replacing Cys101hFX and Ser replacing Cys112hFX) which was obtained by microwave-assisted solid phase peptide synthesis using the Fmoc-protection strategy as described.4
8. AspH inhibition assays […]
water; ammonium iron(II) sulfate hexahydrate, FAS, (NH 4)2Fe(SO4)2·6H2O: 400 mM in 20 mM HCl diluted to 1 mM in Milli-Q® Ultrapure water) were freshly prepared each day from commercially sourced solids (Sigma […]
(Greiner) in an approximately three-fold and 11-point dilution series (100 μM top concentration) using an ECHO 550 acoustic dispenser (Labcyte). DMSO and 2,4 -PDCA were used as negative and positive controls , respectively .
The final DMSO concentration was kept constant at 0.5%v/v throughout all experiments (using the DMSO backfill option of the acoustic dispenser). Each reaction was performed in technical duplicates in adjacent wells of the assay plates; additionally, assays were performed in three independent technical duplicates on different days using different DMSO inhibitor solutions. […]
dispensed across the inhibitor-containing 384-well assay plates with a multidrop dispenser (ThermoFischer Scientific) at 20°C under an ambient atmosphere. The plates were subsequently centrifuged (1000 rpm, 30 s) and incubated for 15 minutes at 20°C. The Substrate Mixture (25 μL/well), containing 2.0 μM hFX-CP101-119, 200 μM […]
Note: The multidrop dispenser ensured proper mixing of the Enzyme and the Substrate Mixtures which was essential for assay reproducibility. The plates were centrifuged (1000 rpm, 30 s) and af ter incubating for 7 minutes, […]
centrifuged (1000 rpm, 60 s) and analysed by MS.
as §1, §2, §3, §4
9. Determination of kinetic parameters […]
as §5

human AspH = target: T2, human AspH (Homo sapiens, UniProt Q12797); assay: SPE-MS AspH turnover assay in the absence of 2OG (2OG derivative as cosubstrate); conditions: 330 μM 2OG or 2OG derivative, 0.1 μM AspH, 2 μM hFX-CP101-119, 50 μM FAS, t = 15 min;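 note: percent conversion = hydroxylated cyclic peptide peak area relative to summed substrate plus product areas, taken from +2 charge state ion chromatograms by solid phase extraction MS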
T2 sequence (Q12797 315-758): T1 sequence (Q12797 315-758)
Method: AspH assays were performed as described in the ESI, ^† data are shown as the mean of three independent runs (n = 3; mean ± standard deviation, SD).
AspH assays were performed as described in Section 9 of the Supporting Information using 0.1 μM AspH, 2 μM
a positive control in the SPE-MS AspH turnover assays (Entry 1).
dependent conversion of the AspH substrate hFX-CP101-119 (Supporting Figure S1d). %-Substrate conversion is
AspH assays were performed as
described in Section 9 of the Supporting Information using 0.1 μM AspH, 2 μM hFX-CP101-119, 50 μM FAS, 330
AspH inhibition assays were incubated for 6 rather than 7 minutes before the enzyme reaction was
stopped by the addition of 10%v/v aqueous formic acid.
MS-analyses were performed using a RapidFire RF 365 high-throughput sampling robot (Agilent) attached to an
iFunnel Agilent 6550 accurate mass quadrupole time-of-flight (Q-TOF) mass spectrometer operated in the positive
ionization mode. Assay samples were aspirated under vacuum for 0.4 s and loaded onto a C4 solid phase extraction (SPE) cartridge. After loading, the C4 SPE cartridge was washed with 0.1%v/v aqueous formic acid to remove
non-volatile buffer salts (5 s, 1.5 mL/min). The peptide was eluted from the SPE cartridge with 0.1%v/v aqueous
formic acid in 85/15v/v acetonitrile/water into the mass spectrometer (5 s, 1.25 mL/min) and the SPE cartridge re-
equilibrated with 0.1%v/v aqueous formic acid (1 s, 1.25 mL/min). The mass spectrometer parameters were:
capillary voltage (4000 V), nozzle voltage (1000 V), fragmentor voltage (365 V), gas temperature (280°C), gas
flow (13 L/min), sheath gas temperature (350°C), sheath gas flow (12 L/min). The m/z +2 charge states of the
cyclic peptide (substrate) and the hydroxylated cyclic peptide (product) were used to extract ion chromatogram
data, peak areas were integrated using RapidFire Integrator software (Agilent). Data were exported into Microsoft
Excel and used to calculate the % conversion of the hydroxylation reaction using the equation: % conversion =
100 x (integral product cyclic peptide) / (integral substrate cyclic peptide + integral product cyclic peptide).
Normalized dose-response curves (2,4-PDCA and DMSO controls) were obtained from the raw data by non-linear
regression (GraphPad Prism 5) and used to determine IC50-values. The standard deviation (SD) of three
independent IC50 determinations (n = 3) was calculated using GraphPad Prism 5. Z’-factors were calculated
according to the cited literature using Microsoft Excel (Supporting Figure S3).14

[6] = test system: glutamic oxaloacetic aminotransferase; parameters: method as in doi:10.1002/1615-4169(200108)343:6/7<692::AID-ADSC692>3.0.CO; conditions: cited from earlier work
[7] = 50 nM His6-AspH315–758, 1.0 μM hFX-CP101–119, 3 μM 2OG
[8] = 50 nM His6-AspH315–758, 1.0 μM hFX-CP101–119, 3 μM 2OG, read-out: IC50 (inhibition of AspH)

| SMILES | K app m [3] [µM] | v app max [3] [µM/s] | time to complete AspH-catalyzed oxidative decarboxylation (NMR) [4] [min] | IC50 (inhibition of AspH) [5, 7] | IC50 [5, 8] | AspH-catalyzed substrate conversion (hydroxylation of hFX-CP101-119) (human AspH) [%] | melting point | further results |
| --- | --- | --- | --- | --- | --- | --- | --- | --- |
| O=C(O)c1ccnc(C(=O)O)c1 [2,4-PDCA, pyridine-2,4-dicarboxylate] | – | – | – | – | – | – | – | IC50 [1]: ~0.03 µM |
| O=C(O)CCC(=O)C(=O)O [2OG, 2-Oxoglutarate, reference compound] | 1.3 ± 0.3 | 0.015 ± 0.0009 | ≤ 5 | – | – | – | – | K app m (2OG) in the absence of LAA [2]: ~0.6 µM; v app max (2OG) in the absence of LAA [2]: ~0.0168 µM/s; k cat [3]: 0.17 ± 0.03 s⁻¹; hydroxylation (conversion) of hFX-CP101-119 in the final reaction mixture by SPE-MS ([4]; t = 5 min): > 95% |
| O=C(O)C(=O)N[C@H](Cc1ccccc1)C(=O)O [NOFD, N-oxalyl-D-phenylalanine] | – | – | – | – | – | – | – | IC50 [1]: ~15.5 µM |
| CC(CC(=O)O)C(=O)C(=O)O (stereo not shown) [compound 16, 3-methyl-2OG] | 0.27 ± 0.04 | 0.0069 ± 0.0002 | ≤ 5 | Inactive | > 50 µM | > 95 | – | – |
| O=C(O)C(=O)CC(Cc1ccccc1)C(=O)O (stereo not shown) [compound 32, 4-benzyl-2OG] | – | – | – | – | 0.43 ± 0.05 µM | < 1 | > 240 °C (dec.) | AspH-catalyzed oxidative decarboxylation of the 2OG derivative (NMR) [4]: apparently not turned over |
| CC(C)(CC(=O)C(=O)O)C(=O)O [compound 34, 4,4-Dimethyl-2OG] | – | – | – | – | ~0.3 µM and 0.3 µM | < 1 | – | IC50 ([5]; 50 nM His6-AspH315-758, 1.0 μM hFX-CP101-119, read-out: IC50 (ESI Fig. S4)): 0.31 ± 0.1 µM; IC50 ([5]; IC50 at 200 μM 2OG (ESI Table S1), assay concentration of 200 μM 2OG): 6.4 ± 0.4 µM; IC50 ([5]; IC50 at 400 μM 2OG (ESI Table S1), assay concentration of 400 μM 2OG): 10 ± 3.1 µM; IC50 ([5]; IC50 at 600 μM 2OG (ESI Table S1), assay concentration of 600 μM (0.6 mM) 2OG): 18.7 µM and ~18.7 µM; substitution for 2OG in transamination reactions [6]: does not efficiently substitute for 2OG; AspH-catalyzed oxidative decarboxylation of the 2OG derivative (NMR) [4]: undergoes slow AspH-catalyzed oxidative decarboxylation; hydroxylation (conversion) of hFX-CP101-119 in the final reaction mixture by SPE-MS ([4]; t = 15 h): ~ 95% |
| O=C(O)C(=O)c1ccc(C(=O)O)cc1 [compound 41, 4-carboxyphenylglyoxylic acid] | 61.9 ± 11.0 | 0.004 ± 0.0003 | ≤ 5 | did not inhibit | – | ~80 | > 350 °C (dec.) | IC50 (inhibition of AspH) ([5]; 50 nM His6-AspH315–758, 1.0 μM hFX-CP101–119, 3 μM 2OG, listed as C00012): Inactive; K app m relative to that for 2OG (times higher) ([3]; ratio to K app m of 2OG): ~47 |
| O=C(O)C(=O)C12CCC(C(=O)O)(CC1)CC2 [compound 47] | – | – | – | did not inhibit | – | ~8 | > 300 °C (dec.) | IC50 (inhibition of AspH) ([5]; 50 nM His6-AspH315–758, 1.0 μM hFX-CP101–119, 3 μM 2OG, listed as C00030): Inactive |
